The text below walks through data of US10766869B2, “Triazoles for the treatment of demyelinating dieases” (Vertex Pharmaceuticals Incorporated, priority 2015, dated 2020).

In the assay the test system is primary rat mixed cortical cells. The experiment in a line: In vitro myelination assay (MBP positive myelin strands, fold myelin pixels above background). The assay is classed as cell-based. The conditions noted are these: Rattus norvegicus, relative to baseline of no added compound, read-out: Fold myelin pixels above background; for fold induction at 1 µM: 1.0 μM compound; for fold induction at 10 µM: 10.0 μM compound. Put shortly:
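P1 rat mixed cortical cultures (neurons, OPCs, oligodendrocytes, astrocytes, microglia) grown 14 days at 37 °C with compound, half-medium refreshed with compound on days 6 and 10. Fixed cells stained for MBP; MBP-positive myelin strand pixels per well quantified by automated imaging, reported as fold over no-compound baseline at 1.0 and 10.0 μM.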

Turning to `Cc1cc(Nc2ncn(-c3cc(F)cc(F)c3)n2)c(F)c(N2CC3(CNC3)C2)c1` [Compound 688, N-[3-(2,6-diazaspiro[3.3]heptan-2-yl)-2-fluoro-5-methyl-phenyl]-1-(3,5-difluorophenyl)-1,2,4-triazol-3-amine], the fold induction at 1 µM is 1 to 10 and the fold induction at 10 µM was no more than 1.
The corresponding values for `Cc1cc(Nc2ncn(-c3cccc(C(F)F)c3)n2)nc(NC2CCOC2)c1` (centres unmarked) [Compound 689, N6-[1-[3-(difluoromethyl)phenyl]-1,2,4-triazol-3-yl]-4-methyl-N2-tetrahydrofuran-3-yl-pyridine-2,6-diamine] are 1 to 10 and 1 to 10.
On to `Cc1cc(Nc2ncn(-c3cc(F)cc(F)c3)n2)cc(N2CC(C(=O)N3CCOCC3)C2)c1` [Compound 690, [1-[3-[[1-(3,5-difluorophenyl)-1,2,4-triazol-3-yl]amino]-5-methyl-phenyl]azetidin-3-yl]-morpholino-methanone], for which the fold induction at 1 µM is 1 to 10 and the fold induction at 10 µM lay within 10 to 100.
In the same order, the values of `Cc1cc(Nc2ncn(-c3cc(F)cc(F)c3)n2)cc(N2CC3CCC(C2)O3)c1` [Compound 692, 1-(3,5-difluorophenyl)-N-[3-methyl-5-(8-oxa-3-azabicyclo[3.2.1]octan-3-yl)phenyl]-1,2,4-triazol-3-amine] are 10 to 100 and 10 to 100.
Turning to `COc1cc(Nc2ncn(-c3cccc(C(F)F)c3)n2)cc(N2CCN(C3COC3)CC2)c1` [Compound 693, 1-[3-(difluoromethyl)phenyl]-N-[3-methoxy-5-[4-(oxetan-3-yl)piperazin-1-yl]phenyl]-1,2,4-triazol-3-amine], the fold induction at 1 µM was in the range of 1 to 10 and the fold induction at 10 µM was no more than 1.
`Cc1cc(Nc2ncn(-c3cc(F)cc(F)c3)n2)cc(N2C3COCC2C3)c1` [Compound 694, 1-(3,5-difluorophenyl)-N-[3-methyl-5-(3-oxa-6-azabicyclo[3.1.1]heptan-6-yl)phenyl]-1,2,4-triazol-3-amine]: the fold induction at 1 µM fell in the range of 10 to 100 and the fold induction at 10 µM was no more than 1.
The corresponding values for `Cc1cc(Nc2ncn(-c3ccc(F)cc3)n2)cc(N2CCN(C3(C)COC3)CC2)c1` [Compound 695, 1-(4-fluorophenyl)-N-[3-methyl-5-[4-(3-methyloxetan-3-yl)piperazin-1-yl]phenyl]-1,2,4-triazol-3-amine] are 1 to 10 and 1 to 10.
`Cc1cc(Nc2ncn(-c3cc(F)cc(F)c3)n2)c(C)c(N2CCN(C3COC3)CC2)c1` [Compound 697, 1-(3,5-difluorophenyl)-N-[2,5-dimethyl-3-[4-(oxetan-3-yl)piperazin-1-yl]phenyl]-1,2,4-triazol-3-amine]: the fold induction at 1 µM was in the range of 1 to 10 and the fold induction at 10 µM was in the range of 10 to 100.
Take `Cc1cc(Nc2ncn(-c3ccc(F)c(F)c3)n2)cc(OCCn2cccn2)c1` [Compound 698, 1-(3,4-difluorophenyl)-N-[3-methyl-5-(2-pyrazol-1-ylethoxy)phenyl]-1,2,4-triazol-3-amine]: the fold induction at 1 µM fell in the range of 10 to 100 and the fold induction at 10 µM is 10 to 100.
For the compound `Cc1cc(Nc2cc(C)[nH]n2)cc(Nc2ncn(-c3ccccc3)n2)c1` [Compound 699, 5-methyl-N3-(5-methyl-1H-pyrazol-3-yl)-N1-(1-phenyl-1,2,4-triazol-3-yl)benzene-1,3-diamine], the fold induction at 1 µM lay in the range of 1 to 10 and the fold induction at 10 µM is no more than 1.
Turning to `Fc1cc(F)cc(-n2cnc(Nc3cc(N4CCN(C5COC5)CC4)cc(N4CC(N5CCOCC5)C4)c3)n2)c1` [Compound 701, 1-(3,5-difluorophenyl)-N-[3-(3-morpholinoazetidin-1-yl)-5-[4-(oxetan-3-yl)piperazin-1-yl]phenyl]-1,2,4-triazol-3-amine], the fold induction at 1 µM lay within 10 to 100 and the fold induction at 10 µM was no more than 1.
The corresponding values for `Cc1cc(Nc2ncn(-c3cc(F)cc(F)c3)n2)nc(N2CCN(C(C)(C)C)CC2)c1` [Compound 702, 6-(4-tert-butylpiperazin-1-yl)-N-[1-(3,5-difluorophenyl)-1,2,4-triazol-3-yl]-4-methyl-pyridin-2-amine] are 10 to 100 and 10 to 100.
On to `Cc1cc(Nc2ncn(-c3cc(F)cc(F)c3)n2)cc(OC2CCOC2)c1` (centres unmarked) [Compound 703, 1-(3,5-difluorophenyl)-N-(3-methyl-5-tetrahydrofuran-3-yloxy-phenyl)-1,2,4-triazol-3-amine], for which the fold induction at 1 µM lay in the range of 10 to 100 and the fold induction at 10 µM is 1 to 10.
As to `Cc1cc(Nc2ncn(-c3ccccc3)n2)cc(N2CC(N3CCOCC3)C2)c1` [Compound 704, N-[3-methyl-5-(3-morpholinoazetidin-1-yl)phenyl]-1-phenyl-1,2,4-triazol-3-amine], the fold induction at 1 µM fell in the range of 10 to 100 and the fold induction at 10 µM was no more than 1.
The corresponding values for `Fc1cc(F)cc(-n2cnc(Nc3cc(Cl)cc(NC4COC4)c3)n2)c1` [Compound 705, 5-chloro-N3-[1-(3,5-difluorophenyl)-1,2,4-triazol-3-yl]-N1-(oxetan-3-yl)benzene-1,3-diamine] are 10 to 100 and 1 to 10.
With `Cc1cc(Nc2ncn(-c3cc(F)cc(F)c3)n2)cc(OCC2CC(F)(F)C2)c1` [Compound 706, N-[3-[(3,3-difluorocyclobutyl)methoxy]-5-methyl-phenyl]-1-(3,5-difluorophenyl)-1,2,4-triazol-3-amine], the fold induction at 1 µM lay within 1 to 10 and the fold induction at 10 µM lay in the range of 1 to 10.
Turning to `N#Cc1cc(N2CCN(C3COC3)CC2)cc(Nc2ncn(-c3cc(F)cc(F)c3)n2)n1` [Compound 707, 6-[[1-(3,5-difluorophenyl)-1,2,4-triazol-3-yl]amino]-4-[4-(oxetan-3-yl)piperazin-1-yl]pyridine-2-carbonitrile], the fold induction at 1 µM was no more than 1 and the fold induction at 10 µM was no more than 1.
Turning to `Cc1cc(Nc2ncn(-c3cc(F)cc(F)c3)n2)cc(C2(C)CN(C3COC3)CCO2)c1` (centres unmarked) [Compound 708, 1-(3,5-difluorophenyl)-N-[3-methyl-5-[2-methyl-4-(oxetan-3-yl)morpholin-2-yl]phenyl]-1,2,4-triazol-3-amine], the fold induction at 1 µM lay in the range of 1 to 10 and the fold induction at 10 µM was no more than 1.
`Cc1cc(Nc2ncn(-c3cc(F)cc(F)c3)n2)cc(N2CCN(C(C)(C)C)CC2)c1` [Compound 709, N-[3-(4-tert-butylpiperazin-1-yl)-5-methyl-phenyl]-1-(3,5-difluorophenyl)-1,2,4-triazol-3-amine]: the fold induction at 1 µM fell in the range of 1 to 10 and the fold induction at 10 µM lay within 1 to 10.
In the case of `COc1ccc(-n2cnc(Nc3cc(C)cc(N4CCN(C5COC5)CC4)c3)n2)cc1` [Compound 710, 1-(4-methoxyphenyl)-N-[3-methyl-5-[4-(oxetan-3-yl)piperazin-1-yl]phenyl]-1,2,4-triazol-3-amine], the fold induction at 1 µM lay in the range of 10 to 100 and the fold induction at 10 µM is no more than 1.
As for `Cc1cc(Nc2ncn(-c3cc(F)cc(F)c3)n2)cc(N2CC(C(=O)N(C)C)C2)c1` [Compound 711, 1-[3-[[1-(3,5-difluorophenyl)-1,2,4-triazol-3-yl]amino]-5-methyl-phenyl]-N,N-dimethyl-azetidine-3-carboxamide], the fold induction at 1 µM was 10 to 100 and the fold induction at 10 µM lay within 1 to 10.
On to `FC(F)(F)c1cc(Nc2ncn(-c3cnccn3)n2)nc(N2CCN(C3COC3)CC2)c1` [Compound 712, 6-[4-(oxetan-3-yl)piperazin-1-yl]-N-(1-pyrazin-2-yl-1,2,4-triazol-3-yl)-4-(trifluoromethyl)pyridin-2-amine], for which the fold induction at 1 µM was 1 to 10 and the fold induction at 10 µM is 1 to 10.
On to `OCc1cc(Nc2ncn(-c3ccc(F)c(F)c3)n2)nc(N2CCN(C3COC3)CC2)c1` [Compound 713, [2-[[1-(3,4-difluorophenyl)-1,2,4-triazol-3-yl]amino]-6-[4-(oxetan-3-yl)piperazin-1-yl]-4-pyridyl]methanol], for which the fold induction at 1 µM lay in the range of 10 to 100 and the fold induction at 10 µM fell in the range of 10 to 100.
For the compound `Cc1cc(Nc2ncn(-c3ccc(F)c(F)c3)n2)cc(OCc2ccn(C)n2)c1` [Compound 714, 1-(3,4-difluorophenyl)-N-[3-methyl-5-[(1-methylpyrazol-3-yl)methoxy]phenyl]-1,2,4-triazol-3-amine], the fold induction at 1 µM fell in the range of 10 to 100 and the fold induction at 10 µM lay within 10 to 100.
Take `CCc1cc(Nc2ncn(-c3ccc(C)c(Cl)c3)n2)cc(N2CCN(C3COC3)CC2)c1` [Compound 715, 1-(3-chloro-4-methyl-phenyl)-N-[3-ethyl-5-[4-(oxetan-3-yl)piperazin-1-yl]phenyl]-1,2,4-triazol-3-amine]: the fold induction at 1 µM was in the range of 10 to 100 and the fold induction at 10 µM lay within 1 to 10.
The corresponding values for `CC1(N2CCN(c3cc(C(F)F)cc(Nc4ncn(-c5cc(F)cc(F)c5)n4)n3)CC2)COC1` [Compound 716, 4-(difluoromethyl)-N-[1-(3,5-difluorophenyl)-1,2,4-triazol-3-yl]-6-[4-(3-methyloxetan-3-yl)piperazin-1-yl]pyridin-2-amine] are 1 to 10 and 100 to 1000.
Turning to `Cc1cc(Nc2ncn(-c3cc(F)cc(F)c3)n2)cc(N2CC(N3CC4CCC(C3)O4)C2)c1` [Compound 717, 1-(3,5-difluorophenyl)-N-[3-methyl-5-[3-(8-oxa-3-azabicyclo[3.2.1]octan-3-yl)azetidin-1-yl]phenyl]-1,2,4-triazol-3-amine], the fold induction at 1 µM is 1 to 10 and the fold induction at 10 µM lay in the range of 10 to 100.
Regarding `FC(F)c1cccc(-n2cnc(Nc3cc(C(F)F)cc(N4CCN(C5COC5)CC4)n3)n2)c1` [Compound 718, 4-(difluoromethyl)-N-[1-[3-(difluoromethyl)phenyl]-1,2,4-triazol-3-yl]-6-[4-(oxetan-3-yl)piperazin-1-yl]pyridin-2-amine], the fold induction at 1 µM lay within 10 to 100 and the fold induction at 10 µM lay within 100 to 1000.
